Drawing on patent US20260297070A1, “CYCLIC [COMPOUND LEFT OUT] WRN INHIBITORS” (Nimbus Wadjet, Inc., priority 2023, published 2026), this text covers IC50 for 23 molecules.

SMILES strings stand for the structures. Where only a bound is given, the exact number is not on record here.

T1 sequence (Q14191 with tags, fused parts or gaps L1074F limits assumed): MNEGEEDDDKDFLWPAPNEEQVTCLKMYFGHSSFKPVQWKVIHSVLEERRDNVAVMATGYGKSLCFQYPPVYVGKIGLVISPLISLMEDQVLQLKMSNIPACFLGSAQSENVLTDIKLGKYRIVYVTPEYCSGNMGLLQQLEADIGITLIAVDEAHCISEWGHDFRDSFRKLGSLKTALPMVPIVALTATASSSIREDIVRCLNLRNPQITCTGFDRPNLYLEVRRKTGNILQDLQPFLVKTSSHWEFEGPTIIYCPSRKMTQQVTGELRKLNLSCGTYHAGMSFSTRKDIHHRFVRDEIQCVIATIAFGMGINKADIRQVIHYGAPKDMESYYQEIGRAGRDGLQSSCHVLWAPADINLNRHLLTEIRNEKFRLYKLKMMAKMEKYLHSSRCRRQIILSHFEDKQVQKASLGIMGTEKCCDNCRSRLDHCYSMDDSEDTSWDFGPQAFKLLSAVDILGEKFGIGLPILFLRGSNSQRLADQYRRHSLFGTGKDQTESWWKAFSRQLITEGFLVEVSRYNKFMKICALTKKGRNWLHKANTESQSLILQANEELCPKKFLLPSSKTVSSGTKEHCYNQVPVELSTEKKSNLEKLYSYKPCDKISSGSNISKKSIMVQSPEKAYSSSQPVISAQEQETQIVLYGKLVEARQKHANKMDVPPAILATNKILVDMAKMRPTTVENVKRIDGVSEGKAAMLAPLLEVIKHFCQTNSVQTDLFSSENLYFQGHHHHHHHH

The experiment concerns the target T1, human Werner helicase (WRN-BV08, Uniprot Q14191, amino acids 517-1235 with L1074F point mutation) (Homo sapiens, UniProt Q14191, L1074F).
T1 construct: Uniprot Q14191, amino acids 517-1235 with L1074F point mutation; TEV-cleavable 8×His (C, cleaved yes); made in house; host or cells: Sf9 insect cells (baculovirus)
The experiment in a line: WRN (BV08) ADP-Glo Assay. It is filed as biochemical. Particulars: 0.15 nM WRN, 5 μM ATP, 0.1 nM DNA duplex, 15 min preincubation, 60 min at 25° C., pH 7.5, 1% DMSO; read-out: ADP-Glo_hWRN_IC50. The method in brief:
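Untagged WRN (Sf9-expressed, TEV-cleaved) at 0.15 nM was preincubated 15 min at 25 °C with compound, then reacted 60 min at 25 °C with 5 μM ATP and 0.1 nM DNA duplex in Bicine pH 7.5, 1 mM MgCl2. ADP-Glo luminescence gave % inhibition; IC50 by four-parameter fit.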
For orientation: In ADP-Glo the light output rises with the ADP produced.
On to `COc1cc(CN(C(=O)C(OCC#N)c2ccc(-c3ccc(F)c(F)c3)cc2F)[C@@H]2C=CS(=O)(=O)C2)ccn1` (single isomer, unassigned) [I-686, (2R*)-2-(cyanomethoxy)-N-[(3R)-1,1-dioxo-2,3-dihydro-1lambda6-thiophen-3-yl]-N-[(2-methoxypyridin-4-yl)methyl]-2-{3,3′,4′-trifluoro-[1,1′-biphenyl]-4-yl}acetamide], for which the IC50 lay within 500 to 5000 nM.
As for `CNC(=O)C(C(=O)N(Cc1ccnc(C(C)(C)O)c1)C1C=CS(=O)(=O)C1)c1ccc(-c2ccc(F)c(F)c2)cc1F` (single isomer, unassigned) [I-689, (2R**)-N′-[(3R*)-1,1-dioxo-2,3-dihydro-1lambda6-thiophen-3-yl]-N′-{[2-(2-hydroxypropan-2-yl)pyridin-4-yl]methyl}-N-methyl-2-{3,3′,4′-trifluoro-[1,1′-biphenyl]-4-yl}propanediamide], the IC50 is less than 500 nM.
`CNC(=O)C(C(=O)N(Cc1ccnc(C(C)(C)O)c1)C1C=CS(=O)(=O)C1)c1ccc(-c2ccc(F)c(F)c2)cc1F` (single isomer, unassigned) [I-690, (2R**)-N′-[(3R*)-1,1-dioxo-2,3-dihydro-1lambda6-thiophen-3-yl]-N′-{[2-(2-hydroxypropan-2-yl)pyridin-4-yl]methyl}-N-methyl-2-{3,3′,4′-trifluoro-[1,1′-biphenyl]-4-yl}propanediamide]: the IC50 fell in the range of 500 to 5000 nM.
As for `COc1cc(CN(C(=O)C(OCC#N)c2ccc(-c3ccc(F)c(F)c3)cc2F)[C@@H]2C=CS(=O)(=O)C2)ccn1` (single isomer, unassigned) [I-692, (2R*)-2-(cyanomethoxy)-N-[(3R)-1,1-dioxo-2,3-dihydro-1lambda6-thiophen-3-yl]-N-[(2-methoxypyridin-4-yl)methyl]-2-{3,3′,4′-trifluoro-[1,1′-biphenyl]-4-y]}acetamide], the IC50 lay within 10000 to 50000 nM.
As for `CNC(=O)C(C(=O)N(Cc1ccnc(OC)c1)[C@@H]1C=CS(=O)(=O)C1)c1ccc(-c2ccc(F)c(F)c2)cc1F` (single isomer, unassigned) [I-693, (2R*)-N′-[(3R)-1,1-dioxo-2,3-dihydro-1lambda6-thiophen-3-yl]-N′-[(2-methoxypyridin-4-yl)methyl]-N-methyl-2-{3,3′,4′-trifluoro-[1,1′-biphenyl]-4-yl}propanediamide], the IC50 was less than 500 nM.
On to `CNC(=O)C(C(=O)N(Cc1ccnc(OC)c1)[C@@H]1C=CS(=O)(=O)C1)c1ccc(-c2ccc(F)c(F)c2)cc1F` (single isomer, unassigned) [I-694, (2R*)-N′-[(3R)-1,1-dioxo-2,3-dihydro-1lambda6-thiophen-3-yl]-N′-[(2-methoxypyridin-4-yl)methyl]-N-methyl-2-{3,3′,4′-trifluoro-[1,1′-biphenyl]-4-yl}propanediamide], for which the IC50 was less than 500 nM.
In the case of `COc1cc(CN(C(=O)C(c2ccc(-c3ccc(F)c(F)c3)cc2F)n2cc(OC(F)F)cn2)[C@@H]2C=CS(=O)(=O)C2)ccn1` (single isomer, unassigned) [I-696, (2R*)-2-[4-(difluoromethoxy)-1H-pyrazol-1-yl]-N-[(3R)-1,1-dioxo-2,3-dihydro-1lambda6-thiophen-3-yl]-N-[(2-methoxypyridin-4-yl)methyl]-2-{3,3′,4′-trifluoro-[1,1′-biphenyl]-4-yl}acetamide] it was more than 50000 nM; in that of `COc1cc(CN(C(=O)C(c2ccc(-c3ccc(F)c(F)c3)cc2F)n2cc(C(F)F)cn2)[C@@H]2C=CS(=O)(=O)C2)ccn1` (single isomer, unassigned) [I-701, (2R*)-2-[4-(difluoromethyl)-1H-pyrazol-1-yl]-N-[(3R)-1,1-dioxo-2,3-dihydro-1lambda6-thiophen-3-yl]-N-[(2-methoxypyridin-4-yl)methyl]-2-{3,3′,4′-trifluoro-[1,1′-biphenyl]-4-yl}acetamide], less than 500 nM; in that of `COc1cc(CN(C(=O)C(OCCS(C)(=O)=O)c2ccc(-c3ccc(F)c(F)c3)cc2F)[C@@H]2C=CS(=O)(=O)C2)ccn1` (single isomer, unassigned) [I-702, (2R*)-N-[(3R)-1,1-dioxo-2,3-dihydro-1lambda6-thiophen-3-yl]-2-(2-methanesulfonylethoxy)-N-[(2-methoxypyridin-4-yl)methyl]-2-{3,3′,4′-trifluoro-[1,1′-biphenyl]-4-yl}acetamide], 500 to 5000 nM.
Turning to `COc1cc(CN(C(=O)C(c2ccc(-c3ccc(F)c(F)c3)cc2F)n2cc(C#N)cn2)[C@@H]2C=CS(=O)(=O)C2)ccn1` (single isomer, unassigned) [I-703, (2R*)-2-(4-cyano-1H-pyrazol-1-yl)-N-[(3R)-1,1-dioxo-2,3-dihydro-1lambda6-thiophen-3-yl]-N-[(2-methoxypyridin-4-yl)methyl]-2-{3,3′,4′-trifluoro-[1,1′-biphenyl]-4-yl}acetamide], the IC50 was less than 500 nM.
In the case of `CC(C)(O)c1cc(CN(C(=O)Cn2cc(-c3ccc(F)c(F)c3F)cn2)C2C=CS(=O)(=O)C2)ccn1` (single isomer, unassigned) [I-704] it was less than 500 nM; in that of `CC(C)(O)c1csc(CN(C(=O)Cc2ccc(S(F)(F)(F)(F)F)cc2)C2C=CS(=O)(=O)C2)n1` (single isomer, unassigned) [I-708], 5000 to 10000 nM.
In the case of `CC(C)(O)c1csc(CN(C(=O)Cc2ccc(S(F)(F)(F)(F)F)cc2)C2C=CS(=O)(=O)C2)n1` (single isomer, unassigned) [I-709], the IC50 is less than 500 nM.
As for `COc1cc(CN(C(=O)C(OCCS(C)(=O)=O)c2ccc(-c3ccc(F)c(F)c3)cc2F)[C@@H]2C=CS(=O)(=O)C2)ccn1` (single isomer, unassigned) [I-710, (2R*)-N-[(3R)-1,1-dioxo-2,3-dihydro-1lambda6-thiophen-3-yl]-2-(2-methanesulfonylethoxy)-N-[(2-methoxypyridin-4-yl)methyl]-2-{3,3′,4′-trifluoro-[1,1′-biphenyl]-4-yl}acetamide], the IC50 is more than 50000 nM.
Regarding `COc1cc(CN(C(=O)C(c2ccc(-c3ccc(F)c(F)c3)cc2F)n2cc(C(F)F)cn2)[C@@H]2C=CS(=O)(=O)C2)ccn1` (single isomer, unassigned) [I-711, (2R*)-2-[4-(difluoromethyl)-1H-pyrazol-1-yl]-N-[(3R)-1,1-dioxo-2,3-dihydro-1lambda6-thiophen-3-yl]-N-[(2-methoxypyridin-4-yl)methyl]-2-{3,3′,4′-trifluoro-[1,1′-biphenyl]-4-yl}acetamide], the IC50 is more than 50000 nM.
In the case of `COc1cc(CN(C(=O)C(c2ccc(-c3ccc(F)c(F)c3)cc2F)n2cc(C#N)cn2)[C@@H]2C=CS(=O)(=O)C2)ccn1` (single isomer, unassigned) [I-712, (2R*)-2-(4-cyano-1H-pyrazol-1-yl)-N-[(3R)-1,1-dioxo-2,3-dihydro-1lambda6-thiophen-3-yl]-N-[(2-methoxypyridin-4-yl)methyl]-2-{3,3′,4′-trifluoro-[1,1′-biphenyl]-4-yl}acetamide] it was 500 to 5000 nM; in that of `CC(C)(O)c1cc(CN(C(=O)Cn2ncc3cc(S(F)(F)(F)(F)F)ccc32)C2C=CS(=O)(=O)C2)ccn1` (single isomer, unassigned) [I-727], 500 to 5000 nM; in that of `CC(C)(O)c1cc(CN(C(=O)C2Cc3cc(S(F)(F)(F)(F)F)ccc3O2)[C@@H]2C=CS(=O)(=O)C2)ccn1` (single isomer, unassigned) [I-730], less than 500 nM.
In the case of `COc1cc(CN(C(=O)C(OCCC#N)c2ccc(-c3ccc(F)c(F)c3)cc2F)[C@@H]2C=CS(=O)(=O)C2)ccn1` (single isomer, unassigned) [I-735, (2R*)-2-(2-cyanoethoxy)-N-[(3R)-1,1-dioxo-2,3-dihydro-1lambda6-thiophen-3-yl]-N-[(2-methoxypyridin-4-yl)methyl]-2-{3,3′,4′-trifluoro-[1,1′-biphenyl]-4-yl}acetamide] it was 500 to 5000 nM; in that of `COc1cc(CN(C(=O)C(OCCC#N)c2ccc(-c3ccc(F)c(F)c3)cc2F)[C@@H]2C=CS(=O)(=O)C2)ccn1` (single isomer, unassigned) [I-736, (2R*)-2-(2-cyanoethoxy)-N-[(3R)-1,1-dioxo-2,3-dihydro-1lambda6-thiophen-3-yl]-N-[(2-methoxypyridin-4-yl)methyl]-2-{3,3′,4′-trifluoro-[1,1′-biphenyl]-4-yl}acetamide], more than 50000 nM.
On to `COc1cc(CN(C(=O)C(c2ccc(-c3ccc(F)c(F)c3)cc2F)n2ccc(C)n2)[C@@H]2C=CS(=O)(=O)C2)ccn1` (single isomer, unassigned) [I-737, (2R*)-N-[(3R)-1,1-dioxo-2,3-dihydro-1lambda6-thiophen-3-yl]-N-[(2-methoxypyridin-4-yl)methyl]-2-(3-methyl-1H-pyrazol-1-yl)-2-{3,3′,4′-trifluoro-[1,1′-biphenyl]-4-yl}acetamide], for which the IC50 was less than 500 nM.
In the case of `COc1cc(CN(C(=O)C(c2ccc(-c3ccc(F)c(F)c3)cc2F)n2nccc2C)[C@@H]2C=CS(=O)(=O)C2)ccn1` (single isomer, unassigned) [I-738, (2R*)-N-[(3R)-1,1-dioxo-2,3-dihydro-1lambda6-thiophen-3-yl]-N-[(2-methoxypyridin-4-yl)methyl]-2-(5-methyl-1H-pyrazol-1-yl)-2-{3,3′,4′-trifluoro-[1,1′-biphenyl]-4-yl}acetamide] it was more than 50000 nM.
Consider `COc1cc(CN(C(=O)C(OC2COC2)c2ccc(-c3ccc(F)c(F)c3)cc2F)[C@@H]2C=CS(=O)(=O)C2)ccn1` (single isomer, unassigned) [I-740, (2R*)-N-[(3R)-1,1-dioxo-2,3-dihydro-1lambda6-thiophen-3-yl]-N-[(2-methoxypyridin-4-yl)methyl]-2-(oxetan-3-yloxy)-2-{3,3′,4′-trifluoro-[1,1′-biphenyl]-4-yl}acetamide], for which the IC50 is 500 to 5000 nM.
